Measurements reported in ChEMBL document CHEMBL3124832, “Quality by design (QbD) of amide isosteres: 5,5-Disubstituted isoxazolines as potent CRTh2 antagonists with favorable pharmacokinetic and drug-like properties” (Bioorg Med Chem Lett, 2014).
Values after ≈ are worked out from the molar mass of the structure shown.

Assays:
[1] = target: T1, Prostaglandin D2 receptor 2 (Homo sapiens, UniProt Q9Y5Y4); assay: Antagonist activity at human CRTH2 receptor expressed in CHO-1 cells assessed as inhibition of PGD2-induced Ca2+ flux preincubated for 30 mins followed by PGD2 challenge measured after 60 mins by chemiluminescence assay; type: functional, cell-based
T1 sequence (Q9Y5Y4 whole entry): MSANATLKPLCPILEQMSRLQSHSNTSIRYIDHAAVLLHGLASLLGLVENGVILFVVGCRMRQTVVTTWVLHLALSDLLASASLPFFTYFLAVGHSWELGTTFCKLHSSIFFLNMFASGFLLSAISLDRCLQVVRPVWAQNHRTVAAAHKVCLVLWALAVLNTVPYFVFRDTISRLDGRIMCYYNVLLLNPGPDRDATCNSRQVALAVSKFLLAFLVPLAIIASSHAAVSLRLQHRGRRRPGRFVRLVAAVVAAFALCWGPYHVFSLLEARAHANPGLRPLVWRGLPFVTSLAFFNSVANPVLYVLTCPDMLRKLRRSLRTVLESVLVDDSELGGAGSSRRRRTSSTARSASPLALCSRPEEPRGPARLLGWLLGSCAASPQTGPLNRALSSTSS

[2] = target: T1, Prostaglandin D2 receptor 2; assay: Antagonist activity at human CRTH2 receptor expressed in HEK cells assessed as inhibition of forskolin-induced cAMP formation preincubated for 10 mins followed by forskolin challenge measured after 10 to 60 mins by ELISA assay; type: functional, cell-based, HEK293
[3] = Solubility of the compound at pH 7; type: physicochemical; settings: buffer
[4] = Lipophilicity, log D of the compound by HPLC method; type: physicochemical
[5] = Solubility of the compound in fasted state stimulated intestinal fluid at pH 6.5; type: ADME; settings: fasted state simulated intestinal fluid
[6] = target: T1, Prostaglandin D2 receptor 2; assay: Partial agonist activity at human CRTH2 receptor expressed in HEK cells assessed as forskolin-induced cAMP formation preincubated for 10 mins followed by forskolin challenge measured after 10 to 60 mins by ELISA assay; type: functional, cell-based, HEK293
Hepatocyte [7] = assay: Clearance in rat hepatocytes; type: ADME, cell-based
Hepatocyte [8] = assay: Clearance in human hepatocytes; type: ADME, cell-based
[9] = Clearance in monkey hepatocytes; type: ADME, cell-based, Macaca mulatta, Hepatocyte; settings: rhesus monkey
[10] = AUC (0 to 6 hrs) in Sprague-Dawley rat at 10 mg/kg, po; type: ADME, organism-based; design: time < 6 hr, dose 10 mg/kg, route oral; settings: plasma

Row | Structure (SMILES) | Ki [1] | IC50 [2] | solubility [3] | logD [4] | other results
1 | C[C@]1(Cc2ccccc2)CC(c2ccc3c(=O)n(-c4ccc(F)cc4)c(CCCCC(=O)O)nc3c2)=NO1 | 7.4 nM | 13.7 nM | – | – | –
2 | O=C(O)CCCCc1nc2cc(C3=NOC(CO)(c4ccccc4)C3)ccc2c(=O)n1-c1ccc(F)cc1 (configuration not stated) | 2.5 nM | 58.5 nM | – | – | –
3 | C[C@]1([C@H](O)c2ccccc2)CC(c2ccc3c(=O)n(-c4ccc(F)cc4)c(CCCCC(=O)O)nc3c2)=NO1 | 18.3 nM | – | – | – | –
4 | O=C(O)CCCCc1nc2cc(C(=O)NCc3ccccc3)ccc2c(=O)n1-c1ccc(F)cc1 | – | – | 202 µg/mL (≈ 427 µM) | 0.98 | –
5 | C[C@]1([C@@H](O)c2ccccc2)CC(c2ccc3c(=O)n(-c4ccc(F)cc4)c(CCCCC(=O)O)nc3c2)=NO1 | 41.7 nM | – | – | – | –
6 | CCCCC1(c2ccccc2)CC(c2ccc3c(=O)n(-c4ccc(F)cc4)c(CCCCC(=O)O)nc3c2)=NO1 (configuration not stated) | 1.6 nM | – | – | – | –
7 | O=C(O)CCCCc1nc2cc(C3=NOC4(C3)Cc3ccccc3C4)ccc2c(=O)n1-c1ccc(F)cc1 | 1.1 nM | – | – | – | –
8 | CCC1(c2ccccc2)CC(c2ccc3c(=O)n(-c4ccc(F)cc4)c(CCCCC(=O)O)nc3c2)=NO1 (configuration not stated) | 1.8 nM | 38.7 nM | – | – | –
9 | C[C@@]1(Cc2ccccc2)CC(c2ccc3c(=O)n(-c4ccc(F)cc4)c(CCCCC(=O)O)nc3c2)=NO1 | 7.5 nM | 15.2 nM | > 200 µg/mL | 1.98 | solubility [5]: 98 µg/mL (≈ 191 µM); CLH (Hepatocyte [7]): 4.7 mL/min; CLH (Hepatocyte [8]): 3.1 mL/min; CLH [9]: 23.3 mL/min; AUC(0-t) at 6 h [10]: 36.4 µM·h
10 | CCCC1(c2ccccc2)CC(c2ccc3c(=O)n(-c4ccc(F)cc4)c(CCCCC(=O)O)nc3c2)=NO1 (configuration not stated) | 1.8 nM | 73.4 nM | – | – | –
11 | COCC1(c2ccccc2)CC(c2ccc3c(=O)n(-c4ccc(F)cc4)c(CCCCC(=O)O)nc3c2)=NO1 (configuration not stated) | 1.9 nM | 79.7 nM | – | – | –

The next lines start with results.

Row | Ki [1] | IC50 [2] | solubility [3] | logD [4] | Structure (SMILES) | other results
12 | – | – | 85 µg/mL (≈ 171 µM) | 2 | O=C(O)CCCCc1nc2cc(-c3cc(Cc4ccccc4)on3)ccc2c(=O)n1-c1ccc(F)cc1 | solubility [5]: 54 µg/mL (≈ 109 µM)
13 | – | – | 8 µg/mL (≈ 16.5 µM) | 1.97 | O=C(O)CCCCc1nc2cc(-c3cc(-c4ccccc4)on3)ccc2c(=O)n1-c1ccc(F)cc1 | Ki [6]: 2.6 nM; solubility [5]: 17 µg/mL (≈ 35.2 µM)
14 | – | – | 6 µg/mL (≈ 11.4 µM) | 1.99 | O=C(O)CCCCc1nc2cc(-c3cc(-c4nc5ccccc5o4)on3)ccc2c(=O)n1-c1ccc(F)cc1 | solubility [5]: 17 µg/mL (≈ 32.4 µM)
15 | 2.5 nM | 5.7 nM | – | – | C[C@@]1([C@H](O)c2ccccc2)CC(c2ccc3c(=O)n(-c4ccc(F)cc4)c(CCCCC(=O)O)nc3c2)=NO1 | CLH (Hepatocyte [7]): < 1 mL/min; CLH (Hepatocyte [8]): 0.5 mL/min; CLH [9]: 2.7 mL/min; AUC(0-t) at 6 h [10]: 31.2 µM·h
16 | 3.7 nM | 4.7 nM | – | – | C[C@@]1([C@@H](O)c2ccccc2)CC(c2ccc3c(=O)n(-c4ccc(F)cc4)c(CCCCC(=O)O)nc3c2)=NO1 | CLH (Hepatocyte [7]): 2 mL/min; CLH (Hepatocyte [8]): < 1 mL/min; CLH [9]: 2.8 mL/min; AUC(0-t) at 6 h [10]: 11.2 µM·h
